PubChem BioAssay AID256 (DTP/NCI, 2004)
“And” between values parts separate entries of the source, which are not always exact repeats. Equal values may be shown once. Toxic doses and inconclusive results are not listed.

System: CD2F1 mice, L1210 leukemia ip, survival T/C
Assay: NCI In Vivo Anticancer Drug Screen. Data for tumor model L1210 Leukemia (intraperitoneal) in CD2F1 (CDF1) mice
Details: higher = longer survival
Summary of the method: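 Vehicle-treated tumor-bearing mice served as controls (C) for compound-treated mice (T). Reported figure is T divided by C.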

[1] = endpoint: mean survival time, dose: 25.0 mg/kg/injection, schedule: Q01DX009 (ip), vehicle: saline with Tween-80
[2] = endpoint: mean survival time, dose: 50.0 mg/kg/injection, schedule: Q01DX009 (ip), vehicle: saline with Tween-80
[3] = endpoint: mean survival time, dose: 100.0 mg/kg/injection, schedule: Q01DX001 (ip), vehicle: saline with Tween-80
[4] = endpoint: mean survival time, dose: 100.0 mg/kg/injection, schedule: Q04DX002 (ip), vehicle: saline with Tween-80
[5] = endpoint: mean survival time, dose: 100.0 mg/kg/injection, schedule: Q04DX003 (ip), vehicle: saline with Tween-80
[6] = endpoint: mean survival time, dose: 200.0 mg/kg/injection, schedule: Q01DX001 (ip), vehicle: saline with Tween-80
[7] = endpoint: mean survival time, dose: 200.0 mg/kg/injection, schedule: Q04DX003 (ip), vehicle: saline with Tween-80
[8] = endpoint: mean survival time, dose: 400.0 mg/kg/injection, schedule: Q04DX002 (ip), vehicle: saline with Tween-80
[9] = endpoint: mean survival time, dose: 100.0 mg/kg/injection, schedule: Q01DX009 (ip), vehicle: saline
[10] = endpoint: mean survival time, dose: 400.0 mg/kg/injection, schedule: Q04DX003 (ip), vehicle: saline with Tween-80
[11] = endpoint: mean survival time, dose: 100.0 mg/kg/injection, schedule: Q01DX009 (ip), vehicle: saline with Tween-80
[12] = endpoint: mean survival time, dose: 200.0 mg/kg/injection, schedule: Q01DX009 (ip), vehicle: saline with Tween-80
[13] = endpoint: mean survival time, dose: 400.0 mg/kg/injection, schedule: Q01DX009 (ip), vehicle: saline with Tween-80
[14] = endpoint: mean survival time, dose: 12.5 mg/kg/injection, schedule: Q01DX009 (ip), vehicle: saline with Tween-80
[15] = endpoint: mean survival time, dose: 12.5 mg/kg/injection, schedule: Q01DX005 (ip), vehicle: distilled water + Tween-80
[16] = endpoint: mean survival time, dose: 25.0 mg/kg/injection, schedule: Q01DX005 (ip), vehicle: distilled water + Tween-80
[17] = endpoint: mean survival time, dose: 50.0 mg/kg/injection, schedule: Q01DX005 (ip), vehicle: distilled water + Tween-80
[18] = endpoint: mean survival time, dose: 100.0 mg/kg/injection, schedule: Q01DX005 (ip), vehicle: distilled water + Tween-80
[19] = endpoint: mean survival time, dose: 200.0 mg/kg/injection, schedule: Q01DX005 (ip), vehicle: distilled water + Tween-80

## O=C(c1ccccc1[N+](=O)[O-])C(Br)C(Br)c1ccc(Cl)c(Cl)c1 (centres undefined)
[1]
  T/C: 87 % of control and 94 % of control
[2]
  T/C: 100 % of control
endpoint: mean survival time, dose: 50.0 mg/kg/injection, schedule: Q04DX003 (ip), vehicle: saline with Tween-80
  T/C: 90 % of control
[3]
  T/C: 107 % of control
[4]
  T/C: 89 % of control and 100 % of control
[5]
  T/C: 87 % of control
[6]
  T/C: 95 % of control
endpoint: mean survival time, dose: 200.0 mg/kg/injection, schedule: Q04DX002 (ip), vehicle: saline with Tween-80
  T/C: 86 % of control and 96 % of control
[7]
  T/C: 90 % of control
[8]
  T/C: 86 % of control and 90 % of control

## Cc1ccccc1[As](c1ccccc1C)c1ccccc1C
endpoint: mean survival time, dose: 25.0 mg/kg/injection, schedule: Q01DX009 (ip), vehicle: saline
  T/C: 86 % of control
[9]
  T/C: 86 % of control

## O=C(Oc1ccc(O)cc1)N(c1cccc2ccccc12)c1cccc2ccccc12
endpoint: mean survival time, dose: 25.0 mg/kg/injection, schedule: Q04DX002 (ip), vehicle: saline with Tween-80
  T/C: 100 % of control
endpoint: mean survival time, dose: 50.0 mg/kg/injection, schedule: Q04DX002 (ip), vehicle: saline with Tween-80
  T/C: 95 % of control
[4]
  T/C: 91 % of control and 98 % of control
[8]
  T/C: 95 % of control

## CC(=O)OC(N=Nc1ccccc1)(c1ccccc1)c1ccccc1
[5]
  T/C: 98 % of control
[7]
  T/C: 92 % of control
[10]
  T/C: 93 % of control

## COc1ccc(C2=NNc3n[nH]c(=S)n3N2)cc1OC
[11]
  T/C: 93 % of control
[5]
  T/C: 91 % of control
[12]
  T/C: 93 % of control
[7]
  T/C: 101 % of control
[13]
  T/C: 104 % of control
[10]
  T/C: 90 % of control

## C(COCCOCC1CO1)OCCOCC1CO1 (centres undefined)
[14]
  T/C: 104 % of control
[1]
  T/C: 108 % of control
[2]
  T/C: 104 % of control
[11]
  T/C: 106 % of control
[12]
  T/C: 104 % of control

## O=C(O)c1ccc([N+](=O)[O-])cc1.[Ag]
endpoint: mean survival time, dose: 3.13 mg/kg/injection, schedule: Q01DX009 (ip), vehicle: saline with Tween-80
  T/C: 102 % of control
endpoint: mean survival time, dose: 6.25 mg/kg/injection, schedule: Q01DX009 (ip), vehicle: saline with Tween-80
  T/C: 102 % of control
endpoint: mean survival time, dose: 6.25 mg/kg/injection, schedule: Q04DX003 (ip), vehicle: saline with Tween-80
  T/C: 96 % of control
[14]
  T/C: 98 % of control
endpoint: mean survival time, dose: 12.5 mg/kg/injection, schedule: Q04DX003 (ip), vehicle: saline with Tween-80
  T/C: 96 % of control

## COc1cc(C(=O)O)cc(OC)c1OC
[3]
  T/C: 97 % of control
[6]
  T/C: 97 % of control
endpoint: mean survival time, dose: 400.0 mg/kg/injection, schedule: Q01DX001 (ip), vehicle: saline with Tween-80
  T/C: 97 % of control

## O=C(NCO)c1ccccc1
endpoint: mean survival time, dose: 50.0 mg/kg/injection, schedule: Q01DX009 (ip), vehicle: Klucel (hydroxypropylcellulose) (HPC)
  T/C: 96 % of control
endpoint: mean survival time, dose: 100.0 mg/kg/injection, schedule: Q01DX009 (ip), vehicle: Klucel (hydroxypropylcellulose) (HPC)
  T/C: 96 % of control
endpoint: mean survival time, dose: 200.0 mg/kg/injection, schedule: Q01DX009 (ip), vehicle: Klucel (hydroxypropylcellulose) (HPC)
  T/C: 96 % of control

## CCCCNc1nc2c(N)ncnc2n1C1OC(CO)C(O)C1O (centres undefined)
[15]
  T/C: 100 % of control and 97 % of control
[16]
  T/C: 102 % of control and 100 % of control
[17]
  T/C: 100 % of control
[18]
  T/C: 100 % of control and 102 % of control
[19]
  T/C: 100 % of control and 103 % of control

## CC(NC(=O)C(C)(Br)C1CCCCC1)c1ccccc1 (centres undefined)
[3]
  T/C: 87 % of control
[6]
  T/C: 91 % of control

## Nc1ncnc2c1nc(N1CCCC1)n2C1OC(CO)C(O)C1O (centres undefined)
[15]
  T/C: 104 % of control and 93 % of control
[16]
  T/C: 104 % of control and 98 % of control
[17]
  T/C: 102 % of control and 100 % of control
[18]
  T/C: 100 % of control and 90 % of control
[19]
  T/C: 105 % of control and 97 % of control

## CS(=O)(=O)OCC(O)C(O)COS(C)(=O)=O (centres undefined)
endpoint: mean survival time, dose: 50.0 mg/kg/injection, schedule: Q01DX007 (ip), vehicle: saline
  T/C: 107 % of control
endpoint: mean survival time, dose: 50.0 mg/kg/injection, schedule: Q01DX009 (ip), vehicle: saline
  T/C: 101 % of control
endpoint: mean survival time, dose: 50.0 mg/kg/injection, schedule: Q03DX003 (ip), vehicle: saline
  T/C: 104 % of control
endpoint: mean survival time, dose: 50.0 mg/kg/injection, schedule: Q04DX003 (ip), vehicle: saline
  T/C: 103 % of control
endpoint: mean survival time, dose: 100.0 mg/kg/injection, schedule: Q01DX007 (ip), vehicle: saline
  T/C: 104 % of control
endpoint: mean survival time, dose: 100.0 mg/kg/injection, schedule: Q01DX009 (ip), vehicle: saline sonified
  T/C: 102 % of control
[9]
  T/C: 104 % of control
endpoint: mean survival time, dose: 100.0 mg/kg/injection, schedule: Q03DX003 (ip), vehicle: saline
  T/C: 104 % of control
endpoint: mean survival time, dose: 100.0 mg/kg/injection, schedule: Q04DX003 (ip), vehicle: saline sonified
  T/C: 100 % of control
endpoint: mean survival time, dose: 100.0 mg/kg/injection, schedule: Q04DX003 (ip), vehicle: saline
  T/C: 100 % of control
endpoint: mean survival time, dose: 200.0 mg/kg/injection, schedule: Q01DX007 (ip), vehicle: saline
  T/C: 105 % of control
endpoint: mean survival time, dose: 200.0 mg/kg/injection, schedule: Q01DX009 (ip), vehicle: saline sonified
  T/C: 96 % of control
endpoint: mean survival time, dose: 200.0 mg/kg/injection, schedule: Q01DX009 (ip), vehicle: saline
  T/C: 106 % of control
endpoint: mean survival time, dose: 200.0 mg/kg/injection, schedule: Q03DX003 (ip), vehicle: saline
  T/C: 102 % of control
endpoint: mean survival time, dose: 200.0 mg/kg/injection, schedule: Q04DX003 (ip), vehicle: saline sonified
  T/C: 108 % of control
endpoint: mean survival time, dose: 200.0 mg/kg/injection, schedule: Q04DX003 (ip), vehicle: saline
  T/C: 114 % of control
endpoint: mean survival time, dose: 400.0 mg/kg/injection, schedule: Q01DX009 (ip), vehicle: saline sonified
  T/C: 100 % of control
endpoint: mean survival time, dose: 400.0 mg/kg/injection, schedule: Q04DX003 (ip), vehicle: saline sonified
  T/C: 102 % of control

## CC(Br)C(=O)NCC(=O)O (centres undefined)
[5]
  T/C: 92 % of control
[7]
  T/C: 91 % of control
[10]
  T/C: 95 % of control

## Nc1nc(NC2OC(CO)C(O)C2O)c2nnsc2n1 (centres undefined)
endpoint: mean survival time, dose: 75.0 mg/kg/injection, schedule: Q01DX001 (ip), vehicle: saline
  T/C: 96 % of control
endpoint: mean survival time, dose: 150.0 mg/kg/injection, schedule: Q01DX001 (ip), vehicle: saline
  T/C: 100 % of control
endpoint: mean survival time, dose: 300.0 mg/kg/injection, schedule: Q01DX001 (ip), vehicle: saline
  T/C: 88 % of control

## O=C(O)C(=O)O.[NH-]C1CCCC1[NH-].[Pt+2] (centres undefined)
endpoint: mean survival time, dose: 1.25 mg/kg/injection, schedule: Q04DX003 (ip), vehicle: other
  T/C: 104 % of control
endpoint: mean survival time, dose: 2.5 mg/kg/injection, schedule: Q04DX003 (ip), vehicle: other
  T/C: 114 % of control
endpoint: mean survival time, dose: 5.0 mg/kg/injection, schedule: Q04DX003 (ip), vehicle: other
  T/C: 115 % of control
endpoint: mean survival time, dose: 10.0 mg/kg/injection, schedule: Q04DX003 (ip), vehicle: other
  T/C: 106 % of control

## O=C(O)/C(O)=C(/O)C(=O)O.[NH-]C1CCCCC1[NH-].[Pt+2]
endpoint: median survival time, dose: 3.12 mg/kg/injection, schedule: Q04DX003 (ip), vehicle: saline
  T/C: 97 % of control
endpoint: median survival time, dose: 25.0 mg/kg/injection, schedule: Q04DX003 (ip), vehicle: saline
  T/C: 113 % of control and 202 % of control
endpoint: median survival time, dose: 50.0 mg/kg/injection, schedule: Q04DX003 (ip), vehicle: saline
  T/C: 337 % of control
endpoint: median survival time, dose: 200.0 mg/kg/injection, schedule: Q04DX003 (ip), vehicle: saline
  T/C: 184 % of control

## OC(c1ccccc1)C1(c2ccccc2)OCCO1 (centres undefined)
[11]
  T/C: 95 % of control
[5]
  T/C: 97 % of control
[12]
  T/C: 90 % of control
[7]
  T/C: 92 % of control
[13]
  T/C: 92 % of control
[10]
  T/C: 98 % of control

## O=c1[nH][nH]c2nccnc12
endpoint: mean survival time, dose: 12.5 mg/kg/injection, schedule: Q01DX005 (ip), vehicle: water
  T/C: 93 % of control
endpoint: mean survival time, dose: 25.0 mg/kg/injection, schedule: Q01DX005 (ip), vehicle: water
  T/C: 93 % of control
endpoint: mean survival time, dose: 50.0 mg/kg/injection, schedule: Q01DX005 (ip), vehicle: water
  T/C: 96 % of control
endpoint: mean survival time, dose: 100.0 mg/kg/injection, schedule: Q01DX005 (ip), vehicle: water
  T/C: 98 % of control
endpoint: mean survival time, dose: 200.0 mg/kg/injection, schedule: Q01DX005 (ip), vehicle: water
  T/C: 101 % of control

## Clc1cccc(-c2cc(-c3ccccc3)[nH]n2)c1
endpoint: mean survival time, dose: 100.0 mg/kg/injection, schedule: Q01DX001 (ip), vehicle: saline sonified
  T/C: 95 % of control
endpoint: mean survival time, dose: 200.0 mg/kg/injection, schedule: Q01DX001 (ip), vehicle: saline sonified
  T/C: 97 % of control
endpoint: mean survival time, dose: 400.0 mg/kg/injection, schedule: Q01DX001 (ip), vehicle: saline sonified
  T/C: 97 % of control
